Data from ChEMBL document CHEMBL1134886, “Synthesis of [(2S,3S,4R)-3,4-dihydroxypyrrolidin-2-yl]-5-methylfuran-4-carboxylic acid derivatives: new leads as selective beta-galactosidase inhibitors” (Bioorg Med Chem Lett, 2002).
Active and inactive are the calls of the source. The calls are words filed in the database; no cut-off is given here.

What was measured:
[1] = biological target: T1, Beta-galactosidase (Aspergillus niger) (UniProt P29853); experiment: Compound was tested for Percent inhibition of Beta-galactosidase from Aspergillus niger at a dose of 1 mM
T1 sequence (whole entry): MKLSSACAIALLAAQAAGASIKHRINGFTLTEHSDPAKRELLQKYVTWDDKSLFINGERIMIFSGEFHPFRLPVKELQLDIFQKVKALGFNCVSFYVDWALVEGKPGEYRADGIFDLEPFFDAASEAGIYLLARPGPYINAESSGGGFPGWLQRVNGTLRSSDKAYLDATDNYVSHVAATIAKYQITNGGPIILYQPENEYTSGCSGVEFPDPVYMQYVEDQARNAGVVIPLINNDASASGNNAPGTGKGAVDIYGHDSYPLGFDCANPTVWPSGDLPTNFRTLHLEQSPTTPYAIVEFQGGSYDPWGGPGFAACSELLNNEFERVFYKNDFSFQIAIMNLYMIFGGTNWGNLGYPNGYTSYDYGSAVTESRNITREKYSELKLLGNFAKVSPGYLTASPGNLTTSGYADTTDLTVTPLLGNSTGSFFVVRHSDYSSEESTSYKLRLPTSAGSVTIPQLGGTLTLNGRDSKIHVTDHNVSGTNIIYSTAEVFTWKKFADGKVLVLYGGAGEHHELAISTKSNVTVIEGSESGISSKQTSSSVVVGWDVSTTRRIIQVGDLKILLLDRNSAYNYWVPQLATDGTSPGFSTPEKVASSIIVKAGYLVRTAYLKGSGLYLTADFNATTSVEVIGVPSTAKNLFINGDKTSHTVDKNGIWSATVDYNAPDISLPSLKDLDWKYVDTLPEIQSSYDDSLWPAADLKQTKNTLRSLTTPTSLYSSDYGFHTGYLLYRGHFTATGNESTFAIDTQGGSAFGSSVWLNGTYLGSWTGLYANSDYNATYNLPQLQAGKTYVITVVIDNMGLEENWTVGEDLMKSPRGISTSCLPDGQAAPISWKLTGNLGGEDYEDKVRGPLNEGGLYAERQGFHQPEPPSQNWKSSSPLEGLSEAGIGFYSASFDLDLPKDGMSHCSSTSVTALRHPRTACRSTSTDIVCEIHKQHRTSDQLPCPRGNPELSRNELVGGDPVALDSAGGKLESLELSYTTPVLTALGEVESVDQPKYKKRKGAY

[2] = test system: Prunus dulcis; experiment: Inhibition of alpha-Mannosidases from Almond was tested at a dose of 1 mM; NI means no inhibition
[3] = biological target: Alpha-galactosidase (Coffea arabica) (UniProt Q42656); experiment: Inhibitor concentration against Alpha-galactosidase from Coffee beans was tested at a dose of 1 mM; NI means no inhibition
[4] = biological target: Beta-galactosidase (Escherichia coli) (UniProt Q8VNN2); experiment: Compound was tested for Percent inhibition of Beta-galactosidase from Escherichia coli at a dose of 1 mM
[5] = test system: Rhizopus; experiment: Compound was tested for Percent inhibition of Amyloglucosidases from Rhizopus mold; NI means no inhibition
[6] = biological target: T2, Beta-galactosidase (Bos taurus) (UniProt Q58D55); experiment: Compound was tested for Percent inhibition of Beta-galactosidase from Bovine liver at a dose of 1 mM
T2 sequence (whole entry): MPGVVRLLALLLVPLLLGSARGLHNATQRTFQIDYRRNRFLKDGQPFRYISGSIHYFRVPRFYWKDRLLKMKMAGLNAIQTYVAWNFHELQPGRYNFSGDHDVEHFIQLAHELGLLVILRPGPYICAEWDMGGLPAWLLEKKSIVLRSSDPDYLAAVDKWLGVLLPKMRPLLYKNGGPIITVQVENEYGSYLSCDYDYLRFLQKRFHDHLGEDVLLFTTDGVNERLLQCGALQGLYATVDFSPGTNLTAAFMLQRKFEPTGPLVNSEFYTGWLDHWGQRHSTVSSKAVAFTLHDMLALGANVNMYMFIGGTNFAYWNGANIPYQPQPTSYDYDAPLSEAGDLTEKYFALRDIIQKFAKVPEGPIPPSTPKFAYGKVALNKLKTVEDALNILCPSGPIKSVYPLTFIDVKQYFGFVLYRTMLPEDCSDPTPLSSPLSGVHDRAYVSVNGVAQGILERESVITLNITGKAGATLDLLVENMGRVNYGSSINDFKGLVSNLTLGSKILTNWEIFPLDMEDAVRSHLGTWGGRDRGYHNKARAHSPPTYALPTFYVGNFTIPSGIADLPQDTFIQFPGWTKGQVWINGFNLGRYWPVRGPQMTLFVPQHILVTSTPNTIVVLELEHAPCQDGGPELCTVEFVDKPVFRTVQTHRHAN

[7] = test system: Aspergillus niger; experiment: Inhibitor concentration against Amyloglucosidases from Aspergillus niger was tested at a dose of 1 mM; NI means no inhibition
[8] = test system: Canavalia ensiformis; experiment: Compound was tested for Percent inhibition of alpha-Mannosidases from Jack beans at a dose of 1 mM
[9] = biological target: Beta-galactosidase (Escherichia coli) (UniProt Q8VNN2); experiment: Inhibitor concentration against Beta-galactosidase from Escherichia coli was tested at a dose of 1 mM; NI means no inhibition
[10] = test system: Prunus dulcis; experiment: Inhibitor concentration against alpha-Mannosidases from Almonds was tested at a dose of 1 mM
[11] = biological target: T3, Tissue alpha-L-fucosidase (Homo sapiens) (UniProt P04066); experiment: Compound was tested for Percent inhibition of alpha-L-Fucosidase from Human placenta at a dose of 1 mM
T3 sequence (whole entry): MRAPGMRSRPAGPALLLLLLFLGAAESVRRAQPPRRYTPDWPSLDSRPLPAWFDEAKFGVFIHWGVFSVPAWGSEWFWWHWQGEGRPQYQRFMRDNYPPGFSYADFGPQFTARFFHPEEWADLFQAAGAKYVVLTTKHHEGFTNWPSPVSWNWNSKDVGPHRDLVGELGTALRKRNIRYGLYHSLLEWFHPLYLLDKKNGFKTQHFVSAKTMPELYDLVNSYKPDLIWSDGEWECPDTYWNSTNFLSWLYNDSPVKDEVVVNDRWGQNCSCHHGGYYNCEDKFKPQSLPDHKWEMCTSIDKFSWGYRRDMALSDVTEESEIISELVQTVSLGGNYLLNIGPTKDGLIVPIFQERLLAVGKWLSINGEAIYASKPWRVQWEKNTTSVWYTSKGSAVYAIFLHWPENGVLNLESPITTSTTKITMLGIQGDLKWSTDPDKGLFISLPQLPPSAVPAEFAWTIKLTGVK

[12] = biological target: T1, Beta-galactosidase (Aspergillus niger); experiment: Inhibitor concentration against Beta-galactosidase from Aspergillus niger was tested at a dose of 1 mM; NI means no inhibition
[13] = biological target: Alpha-galactosidase (Coffea arabica) (UniProt Q42656); experiment: Compound was tested for Percent inhibition of Alpha-galactosidase from Coffee bean at a dose of 1 mM
[14] = test system: Prunus dulcis; experiment: Inhibitor concentration against alpha-Mannosidases from Almond was tested at a dose of 1 mM
[15] = biological target: T1, Beta-galactosidase (Aspergillus niger); experiment: Compound was tested for Percent inhibition of Beta-galactosidase from Aspergillus niger; settings: concentration not given here
[16] = biological target: Beta-galactosidase (Escherichia coli) (UniProt Q8VNN2); experiment: Inhibitor concentration against Beta-galactosidase from was Escherichia coli tested at a dose of 1 mM; NI means no inhibition
[17] = biological target: T4, Beta-galactosidase (Aspergillus niger, UniProt P29853); experiment: Inhibitor concentration against Beta-galactosidase from Aspergillus niger was tested at a dose of 1 mM
T4 sequence (P29853 whole entry): T1 sequence (whole entry)

[18] = test system: Rhizopus; experiment: Inhibitor concentration against Amyloglucosidases from Rhizopus mold was tested at a dose of 1 mM; NI means no inhibition
[19] = biological target: T5, Beta-galactosidase (Bos taurus, UniProt Q58D55); experiment: Inhibitor concentration against Beta-galactosidase from Bovine liver
T5 sequence (Q58D55 whole entry): T2 sequence (whole entry)

[20] = biological target: Alpha-galactosidase (Coffea arabica) (UniProt Q42656); experiment: Compound showed Non competitive inhibition against Alpha-galactosidase from coffee bean; NI means no inhibition at a dose of 1 mM
[21] = test system: Prunus dulcis; experiment: Inhibition of alpha-Mannosidases from Almonds was tested at a dose of 1 mM
[22] = biological target: T4, Beta-galactosidase; experiment: Inhibition constant(Non competitive) of compound against Beta-galactosidase from Aspergillus niger
[23] = biological target: T4, Beta-galactosidase; experiment: Inhibitor concentration against Beta-galactosidase from Aspergillus niger
[24] = test system: Prunus dulcis; experiment: Inhibitor concentration against alpha-Mannosidases from Almond was tested at a dose of 1 mM; NI means no inhibition
[25] = biological target: alpha-galactosidase (Escherichia coli) (UniProt P06720); experiment: Inhibitor concentration against alpha-Galactosidase from Escherichia coli was tested at a dose of 1 mM; NI means no inhibition
Sequence of alpha-galactosidase (Escherichia coli) (P06720 whole entry, looked up): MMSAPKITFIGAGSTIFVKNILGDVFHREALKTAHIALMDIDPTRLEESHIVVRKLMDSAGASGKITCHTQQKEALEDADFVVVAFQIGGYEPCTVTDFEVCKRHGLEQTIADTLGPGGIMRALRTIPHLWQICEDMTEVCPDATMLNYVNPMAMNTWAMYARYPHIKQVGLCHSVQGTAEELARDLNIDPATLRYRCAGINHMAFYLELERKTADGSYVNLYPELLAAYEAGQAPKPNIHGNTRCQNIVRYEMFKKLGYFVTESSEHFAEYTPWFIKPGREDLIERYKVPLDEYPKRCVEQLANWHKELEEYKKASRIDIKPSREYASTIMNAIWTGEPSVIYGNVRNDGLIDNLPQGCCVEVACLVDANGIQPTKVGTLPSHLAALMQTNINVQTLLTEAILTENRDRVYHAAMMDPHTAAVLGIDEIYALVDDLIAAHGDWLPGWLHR

Sequence of Beta-galactosidase (Escherichia coli) (Q8VNN2 whole entry, looked up): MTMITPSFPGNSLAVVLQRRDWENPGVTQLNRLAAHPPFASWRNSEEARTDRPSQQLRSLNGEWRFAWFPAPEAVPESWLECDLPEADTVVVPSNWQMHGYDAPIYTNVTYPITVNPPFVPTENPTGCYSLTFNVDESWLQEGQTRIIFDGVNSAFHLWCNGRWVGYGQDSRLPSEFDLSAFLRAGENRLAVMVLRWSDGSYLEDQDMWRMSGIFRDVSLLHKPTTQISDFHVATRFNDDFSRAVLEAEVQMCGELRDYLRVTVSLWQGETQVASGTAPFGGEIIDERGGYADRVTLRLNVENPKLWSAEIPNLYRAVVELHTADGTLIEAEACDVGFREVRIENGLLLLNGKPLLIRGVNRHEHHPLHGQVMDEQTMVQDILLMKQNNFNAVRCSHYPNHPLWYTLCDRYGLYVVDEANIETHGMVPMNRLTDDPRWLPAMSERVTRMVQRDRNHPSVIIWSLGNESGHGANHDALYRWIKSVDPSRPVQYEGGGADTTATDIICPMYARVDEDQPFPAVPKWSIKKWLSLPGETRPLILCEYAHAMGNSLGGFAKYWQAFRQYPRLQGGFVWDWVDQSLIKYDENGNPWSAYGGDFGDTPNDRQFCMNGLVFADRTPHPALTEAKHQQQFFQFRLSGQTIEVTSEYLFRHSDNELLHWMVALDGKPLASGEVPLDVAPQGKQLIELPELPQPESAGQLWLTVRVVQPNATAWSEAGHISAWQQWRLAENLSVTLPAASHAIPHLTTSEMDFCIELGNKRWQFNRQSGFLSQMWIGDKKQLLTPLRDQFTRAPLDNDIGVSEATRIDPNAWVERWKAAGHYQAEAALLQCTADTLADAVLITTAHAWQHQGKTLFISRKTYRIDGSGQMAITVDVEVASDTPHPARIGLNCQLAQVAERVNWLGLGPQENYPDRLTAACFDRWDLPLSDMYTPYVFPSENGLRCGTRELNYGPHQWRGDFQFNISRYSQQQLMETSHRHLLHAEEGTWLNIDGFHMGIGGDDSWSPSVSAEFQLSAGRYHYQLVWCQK
Sequence of Alpha-galactosidase (Coffea arabica) (Q42656 whole entry, looked up): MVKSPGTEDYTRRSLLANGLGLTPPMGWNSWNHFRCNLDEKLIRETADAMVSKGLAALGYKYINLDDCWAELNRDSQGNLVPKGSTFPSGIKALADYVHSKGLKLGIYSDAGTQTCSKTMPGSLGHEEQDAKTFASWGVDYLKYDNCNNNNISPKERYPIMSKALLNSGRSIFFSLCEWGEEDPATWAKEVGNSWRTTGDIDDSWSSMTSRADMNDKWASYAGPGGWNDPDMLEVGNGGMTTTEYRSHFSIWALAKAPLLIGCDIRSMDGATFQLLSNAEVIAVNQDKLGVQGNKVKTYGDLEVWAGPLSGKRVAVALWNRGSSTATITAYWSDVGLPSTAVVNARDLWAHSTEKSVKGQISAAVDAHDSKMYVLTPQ

SMILES	inhibition [1] [%]	inhibition [4] [%]	inhibition [5]	inhibition [6] [%]	inhibition [7]	inhibition [8] [%]	inhibition [9]	inhibition [11] [%]	IC50 [19] [µM]	other results
CCOC(=O)c1cc([C@H]2NC[C@@H](O)[C@H]2O)oc1C	99	83	inactive	78	inactive	49	–	–	–	inhibition [2]: 37%; Ki [3]: Not Active
Cc1oc([C@@H]2NC[C@@H](O)[C@H]2O)cc1C(=O)NC(C)C	–	–	–	38	23%	–	inactive	–	–	inhibition [12]: inactive; inhibition [13]: 29%; inhibition [14]: 9%
Cc1oc([C@H]2NC[C@@H](O)[C@H]2O)cc1C(=O)NC(C)C	–	–	–	49	inactive	–	–	39	1000	inhibition [15]: 79%; inhibition [16]: inactive; IC50 [17]: 250 µM; inhibition [18]: inactive

The next lines start with results.

inhibition [1] [%]	inhibition [4] [%]	inhibition [5]	inhibition [6] [%]	inhibition [7]	inhibition [8] [%]	inhibition [9]	inhibition [11] [%]	IC50 [19] [µM]	SMILES	other results
–	–	–	58	inactive	27	inactive	91	–	CCN(CC)C(=O)c1cc([C@@H]2NC[C@@H](O)[C@H]2O)oc1C	inhibition [10]: 31%
96	33	inactive	90	inactive	37	–	–	42	CCN(CC)C(=O)c1cc([C@H]2NC[C@@H](O)[C@H]2O)oc1C	inhibition [20]: No inhibition; inhibition [21]: 38%; Ki [22]: 30 µM; IC50 [23]: 28 µM
80	–	–	57	inactive	38	–	76	–	CCOC(=O)c1cc([C@@H]2NC[C@@H](O)[C@H]2O)oc1C	inhibition [24]: inactive; inhibition [25]: inactive
